Laboratory results reported in patent US9320718B2, “Multilayer coating form of orally administered pharmaceutical composition containing omega-3 fatty acid or alkyl ester thereof and statin based drug” (KUHNIL PHARM. CO., LTD., priority 2012, dated 2016).
Blank lines part the entries; values can stand above or below the compound they belong to.

Experiments:
Type in all cases: physicochemical
[1] = Compatibility of atorvastatin and coating material: related compounds on storage under severe conditions (HPLC); conditions: atorvastatin 0.5 mg with coating material 2.5 mg, vacuum-dried, stored at about 60° C., relative humidity about 85%
Procedure: (§1) To form an atorvastatin-containing drug-coating layer, compatibility of atorvastatin with various coating materials (coating agents and surfactants) were evaluated. About 2.5 mg of each coating material as shown in Table 2 was dissolved in 5 mL of a 75% aqueous ethanol solution, and about 0.5 mg of atorvastatin was added thereto and then completely dissolved. About 0.5 mg of atorvastatin was completely dissolved in 5 mL of a 75% aqueous ethanol solution as a control group for the compatibility evaluation. Each of the resulting solutions was vacuum-dried at about 50° C. for about 24 hours to completely remove the solvent, thereby preparing test samples. While each test temple was stored under severe conditions (at a temperature of about 60° C. and a relative humidity of about 85%), a degree of generation of related compounds with time was observed. The related compounds were analyzed by HPLC in the following manner.
<Atorvastatin Analysis Method>
(§2) Each test sample was dissolved in 25 mL of methanol, followed by a 2-fold dilution with a mobile phase and filtration through a 0.45-um filter, thereby preparing analysis samples.
Mobile phase; acetonitrile: 0.5% (v/v) aqueous formic acid solution=50:50

[2] = Compatibility of pitavastatin and coating material: related compounds on storage under severe conditions (HPLC); conditions: pitavastatin 0.5 mg with coating material 2.5 mg, vacuum-dried, stored at about 60° C., relative humidity about 85%
Procedure: as §1, with “To form a pitavastatin-containing drug-coating layer,” for “To form an atorvastatin-containing drug-coating layer,”, “compatibility of pitavastatin with various” for “compatibility of atorvastatin with various”, “in Table 3 was dissolved” for “in Table 2 was dissolved”, “mg of pitavastatin was added” for “mg of atorvastatin was added”, “mg of pitavastatin alone was completely” for “mg of atorvastatin was completely”, “degree of generated related compounds” for “degree of generation of related compounds”
<Pitavastatin Analysis Method>
as §2
Mobile phase; acetonitrile: 0.1% (v/v) aqueous trifluoroacetic acid (TFA) solution=60:40

[3] = Compatibility of rosuvastatin and coating material: related compounds on storage under severe conditions (HPLC); conditions: rosuvastatin 0.5 mg with coating material 2.5 mg, vacuum-dried, stored at about 60° C., relative humidity about 85%
Procedure: To form a rosuvastatin-containing drug-coating layer, compatibility of rosuvastatin with various coating materials (coating agents and surfactants) were evaluated. About 2.5 mg of each coating material as shown in Table 1 was dissolved in 5 mL of a 75% aqueous ethanol solution, and about 0.5 mg of rosuvastatin was added thereto and then completely dissolved. About 0.5 mg of rosuvastatin alone was completely dissolved in 5 mL of a 75% aqueous ethanol solution as a control group for the compatibility evaluation. Each of the resulting solutions was vacuum-dried at about 50° C. for about 24 hours to completely remove the solvent, thereby preparing a test sample. While each test temple was stored under severe conditions (at a temperature of about 60° C. and a relative humidity of about 85%), a degree of generation of related compounds with time was observed. The related compounds were analyzed by high-performance liquid chromatography (HPLC) in the following manner.
<Rosuvastatin Analysis Method>
The test sample was dissolved in 25 mL of methanol, followed by a 2-fold dilution with a mobile phase and filtration through a 0.45-um filter, thereby preparing an analysis sample.
Mobile phase; Acetonitrile: 0.5% (v/v) aqueous formic acid solution=50:50

- Related compound (%, 1st week) [1]: 0.3%
- Related compound (%, 1st week) ([1]; listed as atorvastatin): About 0.3%
- Related compound (%, 3rd week) [1]: 3.3%
- Related compound (%, 3rd week) ([1]; listed as atorvastatin): about 3.3%
SMILES: CC(C)c1c(C(=O)Nc2ccccc2)c(-c2ccccc2)c(-c2ccc(F)cc2)n1CC[C@@H](O)C[C@@H](O)CC(=O)O [Atorvastatin]

- Related compound (%, 1st week) [2]: 0.1%
- Related compound (%, 1st week) ([2]; listed as pitavastatin): About 0.1%
- Related compound (%, 3rd week) [2]: 0.2%
- Related compound (%, 3rd week) ([2]; listed as pitavastatin): about 0.2%
SMILES: O=C(O)C[C@H](O)C[C@H](O)/C=C/c1c(C2CC2)nc2ccccc2c1-c1ccc(F)cc1 [Pitavastatin]

- Related compound (%, 1st week) [3]: 1.4%
- Related compound (%, 1st week) ([3]; listed as rosuvastatin): About 1.4%
- Related compound (%, 3rd week) [3]: 5.2%
- Related compound (%, 3rd week) ([3]; listed as rosuvastatin): about 5.4%
SMILES: CC(C)c1nc(N(C)S(C)(=O)=O)nc(-c2ccc(F)cc2)c1/C=C/[C@@H](O)C[C@@H](O)CC(=O)O [Rosuvastatin]
